# Assays:
# [1] = test system: DSS induced IBD in C57BL/6 mice; experiment: DSS induced inflammatory bowel disease (IBD) model; format: in vivo; details: 90 mg/kg po qd day 0 to day 7
# Source text: Female C57BL/6 mice (8 weeks old) were obtained from Beijing Vital River Laboratory Animal Co. Ltd. Animals were housed and handled in a temperature-controlled environment with a 12-h light/12-h dark cycle. A total of 30 mice were assigned to 3 groups by randomization based on body weight.
# On Day 0, colitis was induced by administration of 3% DSS (dextran sodium sulfate, molecular weight 36,000-50,000) in drinking water ad libitum for 8 days. 8-week-old mice were divided into 3 groups: Group 2, DSS treatment group (vehicle, po, qd, from day 0 to day 7); Group 3, DSS with 90 mg/kg Cpd. 73 (po, qd, from day 0 to day 7); and the Group 1 (G1) Naive group, the mice were provided drinking water without DSS. The protocols and procedures involving the care and use of animals were approved by the Institutional Animal Care and Use Committee (IACUC) at Wuxi Apptec (Shanghai, China).
# At the end of the study, the animals were euthanized, dissected and the entire colon was quickly removed and gently cleared of feces.
# At the end of the study (day 8), all the animals were sacrificed by CO2. The colon was Swiss-rolled and fixed with neutralized PFA followed by H&E staining. After that, the pathologists from WuXi clinical pathological analysis platform, who were blinded to animal ID, reviewed the H&E staining and scored. […]
# [2] = test system: chronic kidney disease-induced anemia in SD rats; experiment: Rat model of chronic kidney disease-induced anemia (adenine); format: in vivo; details: 5, 15, 45 mg/kg po QD×4 weeks, end of study
# Method: SPF-grade male SD rats (200±20 g, 8 weeks) were purchased from Zhejiang Vital River Laboratory Animal Technology Co., Ltd. After acclimating for a week, blood samples were collected and analyzed to exclude anormal animals. The normal animals were randomized, 10 animals were assigned into Control group which were left untreated until the end of the study, and the rest animals received 300 mg/kg adenine by oral gavage (QD×6 weeks). […] Then 60 adenine-treated rats with successful model establishment were further randomized into the following six groups: Model group (treated with vehicle), EPO group (50 U/kg), Cpd. 73 5 mg/kg group, Cpd. 73 15 mg/kg group, Cpd. 73 45 mg/kg group and CPD. 73+EPO group (15 mg/kg+50 U/kg). Each group contained 10 animals. Cpd. 73 was administered to rats by oral gavage (QD×4 weeks), while EPO was subcutaneously administered (TIW×4 weeks).
# Body weight, mortality and health condition of rats were recorded twice a week. After model establishment, blood samples were take from the orbit and a few parameters were determined including RBC, HGB, HCT, RET, BUN and Creatine. Blood samples were taken once a week during drug treatment and RBC, HGB, HCT, and RET were analyzed.
compound,measurement,setting,value
"CC(C)N1Cc2cc(C(F)(F)F)ncc2-c2cnc(NCc3c(F)ccc4c3CCO4)n3cnc(c23)C1=O [Cpd. 73, 12-(((5-fluoro-2,3-dihydrobenzofuran-4-yl)methyl)amino)-4-isopropyl-7-(trifluoromethyl)-4,5-dihydro-3H-2,4,8,11,12a-pentaazabenzo[4,5]cycloocta[1,2,3-cd]inden-3-one]","pathological score (H&E, colon)","[1]; day 8, vehicle 10.10±0.18",8.30±0.54
same,colon density (colon weight/colon length),[1]; vehicle 50.88±2.53,41.86±2.57
same,body weight,[2]; p<0.001 or 0.01 vs Model,dose-dependently improved
same,HCT,[2]; p<0.001 or 0.05 vs Model,dose-dependently improved
same,HGB,[2]; p<0.001 or 0.05 vs Model,dose-dependently improved
same,RBC,[2]; p<0.001 or 0.05 vs Model,dose-dependently improved
same,RET,[2]; p<0.001 or 0.05 vs Model,dose-dependently improved
